# Like-named read-outs stand apart in the source and are kept apart here.
# Tests used:
# rats [1] = details: rat, in vivo
# Method: The control diet consisted of the following ingredients in the indicated ratios:
# Four other diets were prepared by substituting for corn starch corresponding to 10% by weight of the entire control diet equal amounts respectively: of the bulking agent according to the invention; Neosugar; Polydextrose; and sucrose.
# Groups comprising five rats in each group were fed with these diets, and the digestible dry matter was measured after a preliminary period of 10 days by differential gravimetric determination.
# [2] = 10% w/w aqueous solution
# Method: After given storage periods of 2,6,24 hours the percentage decomposition was measured according to the formula [formula] wherein DP2^+ is the amount of oligomers with a DP of 2 or more.
# rats [3] = assay: Weight increase of rats after an additional 6 weeks and digestibility calculated from it; assay type: in vivo; details: after an additional 6 weeks, diet with 10% of substance
# Method: Later, after an additional 6 weeks the weight increase was measured.
# The percentual weight difference, y % of the bulking agent, taking the sucrose as a control with an assumed digestibility of 100%, thus can be calculated according to the equation: [formula]
# As the bulking agent is only 10% of the diet, the digestibility, x %, can be calculated according to the equation: […]
# The digestibility of Polydextose and Neosugar can be calculated in a similar manner. In the following table the calculated 6 weeks digestibilities of the bulking agents are shown.
compound,measurement,setting,value
Polydextrose,"Digestible dry matter of diet, mean",rats [1],91.8%
same,"Digestible dry matter of the bulking agent, x %",rats [1],68%
"OC[C@H]1O[C@@](CO)(O[C@H]2O[C@H](CO)[C@@H](O)[C@H](O)[C@H]2O)[C@@H](O)[C@@H]1O [Sucrose, sucrose]",percentage decomposition,"[2]; 2 h, pH 5",0%
same,percentage decomposition,"[2]; 2 h, pH 6",0%
same,percentage decomposition,"[2]; 2 h, pH 7",0%
same,percentage decomposition,"[2]; 5 h, pH 2",97.2%
same,percentage decomposition,"[2]; 5 h, pH 3",31.8%
same,percentage decomposition,"[2]; 5 h, pH 4",5.8%
same,percentage decomposition,"[2]; 5 h, pH 5",0%
same,percentage decomposition,"[2]; 5 h, pH 6",0%
same,percentage decomposition,"[2]; 5 h, pH 7",0%
same,percentage decomposition,"[2]; 6 h, pH 2",15.0%
same,percentage decomposition,"[2]; 6 h, pH 3",3.7%
same,percentage decomposition,"[2]; 6 h, pH 4",0%
same,percentage decomposition,"[2]; 6 h, pH 5",0%
same,percentage decomposition,"[2]; 6 h, pH 6",0%
same,percentage decomposition,"[2]; 6 h, pH 7",0%
same,percentage decomposition,"[2]; 24 h, pH 5",0%
same,percentage decomposition,"[2]; 24 h, pH 6",0%
same,percentage decomposition,"[2]; 24 h, pH 7",0%
same,percentage decomposition,"[2]; 48 h, pH 2",100%
same,percentage decomposition,"[2]; 48 h, pH 3",77.2%
same,percentage decomposition,"[2]; 48 h, pH 4",10.8%
same,percentage decomposition,"[2]; 48 h, pH 5",1.6%
same,percentage decomposition,"[2]; 48 h, pH 6",0%
same,percentage decomposition,"[2]; 48 h, pH 7",0%
same,Average weight increase,rats [3],220.11 g
same,"Digestible dry matter of diet, mean",rats [1],94.1%
